From patent US9585975B2, “MRI contrast agents” (NORTHWESTERN UNIVERSITY, priority 2012, dated 2017)
Where “and” joins values, the source holds several entries; their conditions need not be identical. Equal entries are not always repeated. Where two headings read alike, the source gives them in different places.

Assays:
HaloTag protein = conditions: 37° C.
Experimental: The HaloTag protein was expressed recombinantly after subcloning the target protein into the vector pMCSG7 to include an N-terminal His6-Tag followed by a TEV protease cleavage site. The protein was expressed in BL21(DE3) cells and purified by Nickel affinity chromatography. […] The HaloTag protein was labeled with a 5-fold molar excess of the Gd(III) complex at 4 degrees C. overnight. […] The labeled proteins were concentrated to a starting concentration of ˜600 μM for all relaxivity analyses.
Longitudinal relaxivities of the unbound agents were determined in water and the protein-bound contrast agents in 10 mM MOPS at 1.5 T, 37_C (Table 1).
To prepare the protein-bound contrast agent 12.5 mg protein was incubated overnight at 4° C. with five equivalents haloalkane label. Excess label was removed by size-exclusion chromatography (Econo-Pac 10 DG Disposable Chromatography Columns) and dialysis overnight into 10 mM MOPS, pH 7.4 (Spectrum Spectra/Por 4 Dialysis Membrane Tubing 12-14K MWCO) at 4° C. The protein-bound contrast agent was concentrated to a starting concentration of ˜600 μM for all relaxivity assays (Amicon Ultra-4, PLGC Ultracel-PL Membrane, 10 kDa). Agent binding was detected by mass spectrometry (Agilent 6510 Accurate-Mass Q-TOF LC/MS) and data deconvolution was performed with the included software (Agilent MassHunter Qualitative Analysis).
The relaxation rates and Gd(III) concentrations were determined for contrast agent solutions in a range of concentrations. The relaxation rates of small molecule contrast agents were investigated using a 4 mM starting solution in water and diluted 1:1 four times. Relaxation rates of protein bound contrast agents were measured using 600 μM starting solution in 10 mM MOPS and was diluted 1:1 four times. Relaxation rates were determined using a 60 MHz (1.5 T) NMR analyzer (Bruker Minispec MQ60) at 37° C. using 500 μL in a 7.5 mm inner diameter NMR tubes. T1 relaxation times were determined using monoexponential curve fitting and an inversion recovery pulse sequence with four averages for each of 10 data points.
Gd(III) concentrations for all samples were measured by ICP-MS. Samples were prepared by dissolving 10 μL into 90 μL trace nitric acid, and diluted to 10 mL with ultrapure water (nitric acid was added to generate a 3% solution. Samples contained a multi-element internal standard consisting of 5 ppb each Bi, Ho, In, Li(6), Sc, Tb, and Y (Spex Certiprep, Metuchen, N.J., USA). ICP-MS was performed on a computer-controlled (Plasmalab software) Thermo X series II ICP-MS (Thermo Fisher Scientific, Waltham, Mass., USA) equipped with an ESI SC-2 autosampler (Omaha, Nebr., USA). Each sample was acquired using 1 survey run (10 sweeps) and 3 main (peak jumping) runs (100 sweeps).

[1] = Relaxivity determination of free (unbound) contrast agents; format: physicochemical; conditions: 37° C.
Experimental: The relaxation rates and Gd(III) concentrations were determined for contrast agent solutions in a range of concentrations. The relaxation rates of small molecule contrast agents were investigated using a 4 mM starting solution in water and diluted 1:1 four times. […] Relaxation rates were determined using a 60 MHz (1.5 T) NMR analyzer (Bruker Minispec MQ60) at 37° C. using 500 μL in a 7.5 mm inner diameter NMR tubes. T1 relaxation times were determined using monoexponential curve fitting and an inversion recovery pulse sequence with four averages for each of 10 data points.

[2] = 1.5 T, 37 degrees C.; cited from earlier work
HSA = HSA (Homo sapiens, UniProt P02768); conditions: 1.5 T, 37 degrees C.; cited from earlier work
Sequence of HSA (P02768 25-609): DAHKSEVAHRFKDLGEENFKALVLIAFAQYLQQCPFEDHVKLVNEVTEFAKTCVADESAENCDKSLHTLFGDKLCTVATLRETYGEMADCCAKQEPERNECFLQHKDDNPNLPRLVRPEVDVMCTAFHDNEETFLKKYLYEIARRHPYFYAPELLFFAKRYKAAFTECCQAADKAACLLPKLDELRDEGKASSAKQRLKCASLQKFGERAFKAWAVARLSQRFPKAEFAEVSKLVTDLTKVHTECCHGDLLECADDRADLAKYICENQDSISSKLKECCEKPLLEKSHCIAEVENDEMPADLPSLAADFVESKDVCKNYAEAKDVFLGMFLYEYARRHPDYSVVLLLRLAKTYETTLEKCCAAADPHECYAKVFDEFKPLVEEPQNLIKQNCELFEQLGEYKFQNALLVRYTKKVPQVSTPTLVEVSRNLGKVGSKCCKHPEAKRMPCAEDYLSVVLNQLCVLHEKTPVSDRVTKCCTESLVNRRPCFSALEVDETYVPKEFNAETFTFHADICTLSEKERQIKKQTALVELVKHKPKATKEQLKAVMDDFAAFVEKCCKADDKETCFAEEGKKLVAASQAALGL

SMILES	r1 - PB (longitudinal relaxivity, protein-bound) (HaloTag protein; 60 MHz (1.5 T), 10 mM MOPS)	r2 - PB (transverse relaxivity, protein-bound) (HaloTag protein; 60 MHz) [mM⁻¹ s⁻¹]	r1 - PB (longitudinal relaxivity, protein-bound) (HaloTag protein; 400 MHz) [mM⁻¹ s⁻¹]	r2 - PB (transverse relaxivity, protein-bound) (HaloTag protein; 400 MHz) [mM⁻¹ s⁻¹]	r2 - F (transverse relaxivity, free) ([1]; 60 MHz) [mM⁻¹ s⁻¹]	r1 - F (longitudinal relaxivity, free) ([1]; 400 MHz) [mM⁻¹ s⁻¹]	r2 - F (transverse relaxivity, free) ([1]; 400 MHz) [mM⁻¹ s⁻¹]	relaxivity, unbound [2] [mM⁻¹ s⁻¹]	relaxivity when bound to HSA (HSA) [mM⁻¹ s⁻¹]
O=C([O-])CN1CCN(CC(=O)[O-])CCN(CC(=O)NCCOCCOCCCCCCCl)CCN(CC(=O)[O-])CC1.[Gd+3] [1CHTGd]	13.4 ± 1.3 mM⁻¹ s⁻¹	25.2 ± 2.6	4.0 ± 0.2	28 ± 2	4.1 ± 0.2	3.2 ± 0.1	4.0 ± 0.1		
O=C([O-])CN1CCN(CCC(=O)NCCOCCOCCCCCCCl)CCN(CC(=O)[O-])CCN(CC(=O)[O-])CC1.[Gd+3] [2CHTGd]	22.0 mM⁻¹ s⁻¹ and 22.0 ± 2.2 mM⁻¹ s⁻¹	45.3 ± 5.5	5.1 ± 0.7	56 ± 8	3.9 ± 0.5	3.3 ± 0.1	4.1 ± 0.1		
O=C([O-])CN1CCN(CCCC(=O)NCCOCCOCCCCCCCl)CCN(CC(=O)[O-])CCN(CC(=O)[O-])CC1.[Gd+3] [3CHTGd]	7.6 ± 0.7 mM⁻¹ s⁻¹	13.1 ± 0.9	2.7 ± 0.1	15.9 ± 0.1	5.8 ± 0.1	6.0 ± 0.2	4.9 ± 0.2		
O=C([O-])CN1CCN(CCCCC(=O)NCCOCCOCCCCCCCl)CCN(CC(=O)[O-])CCN(CC(=O)[O-])CC1.[Gd+3] [4CHTGd]	8.6 ± 1.1 mM⁻¹ s⁻¹	15.9 ± 2.3	3.3 ± 0.2	19.6 ± 1.3	6.5 ± 0.5	5.6 ± 0.2	6.9 ± 0.2		
O=C([O-])CN(CCN(CC(=O)[O-])C[C@H](COP(=O)([O-])OC1CCC(c2ccccc2)(c2ccccc2)CC1)N(CC(=O)[O-])CC(=O)[O-])CC(=O)[O-].[Gd+3].[H+].[H+].[H+] [MS-325]								5.5	25
